Tested on: SFV-Rluc
Settings: for SFV replication % left: primary screening of chemical libraries, compounds tested at 50 µM; for % left (remaining SFV replication): Supplementary Table 2, moderately active compounds (25 - 60% remaining), primary screen at 50 µM

Row | SMILES | SFV replication % left (surviving fraction, remaining percentage of SFV replication) [%] | SFV replication % left [%] | % left (remaining SFV replication) [%]
1 | CC(C)NCC(O)COc1ccc(CC(N)=O)cc1 (stereo not shown) [Atenolol] | 44.2 | – | –
2 | COc1ccc(-c2cc(=O)c3c(O)cc(O)cc3o2)cc1 [NC-001] | – | 78.1 | –
3 | O=c1cc(-c2ccccc2)oc2c1ccc1ccccc12 [NC-002] | – | 14.6 | –
4 | O=c1cc(-c2ccc(O)cc2)oc2cc(O)cc(O)c12 [NC-003] | – | 18.0 | –
5 | O=C1O[C@H]([C@@H](O)CO)C(O)=C1O [NC-004] | – | 81.4 | –
6 | O=C(O)c1ccccc1 [NC-005] | – | 71.6 | –
7 | O=C(c1ccccc1)c1cc2c(ccc3ccccc32)oc1=O [NC-006] | – | 39.9 | 39.9
8 | O=c1oc2cc(O)ccc2cc1-c1nc2ccccc2o1 [NC-007] | – | 21.0 | –
9 | COc1c2ccoc2cc2oc(=O)ccc12 [NC-008] | – | 46.8 | –
10 | O=C(O)/C=C/c1ccc(O)c(O)c1 [NC-010] | – | 98.7 | –
11 | Oc1cc(O)c2c(c1)O[C@H](c1ccc(O)c(O)c1)[C@@H](O)C2 [NC-011] | – | 64.5 | –
12 | Oc1ccccc1O [NC-012] | – | 58.4 | –
13 | O=c1cc(-c2ccccc2)oc2cc(O)cc(O)c12 [NC-013] | – | 18.1 | –
14 | O=C(O)/C=C/c1ccccc1O [NC-014] | – | 77.6 | –
15 | Cc1cc(=O)oc2c3c4c(cc12)CCCN4CCC3 [NC-015] | – | 34.6 | 34.6
16 | CCN(CC)c1ccc2cc(-c3nc4ccccc4n3C)c(=O)oc2c1 [NC-016] | – | 12.3 | –
17 | CCN(CC)c1ccc2cc(-c3nc4ccccc4[nH]3)c(=O)oc2c1 [NC-017] | – | 37.3 | 37.3
18 | O=c1ccc2ccccc2o1 [NC-018] | – | 68.8 | –
19 | Oc1cc(O)c2cc(O)c(-c3ccc(O)c(O)c3)[o+]c2c1.[Cl-] [NC-019] | – | 24.5 | –
20 | O=c1c(-c2ccc(O)cc2)coc2cc(O)ccc12 [NC-020] | – | 76.6 | –
21 | O=c1ccc2ccc(O)c(O)c2o1 [NC-021] | – | 81.7 | –
22 | CCN(CC)c1ccc2cc(C(=O)c3cccs3)c(=O)oc2c1 [NC-022] | – | 15.6 | –
23 | O=C(O)c1cccc(O)c1O [NC-023] | – | 93.1 | –

Row | SMILES | SFV replication % left (surviving fraction, remaining percentage of SFV replication) [%] | SFV replication % left [%] | % left (remaining SFV replication) [%]
24 | O=C(O)c1cc(O)ccc1O [NC-024] | – | 127.8 | –
25 | O=C(O)c1c(O)cccc1O [NC-025] | – | 118.7 | –
26 | O=C(O)c1ccc(O)c(O)c1 [NC-026] | – | 124.5 | –
27 | O=C(O)c1cc(O)cc(O)c1 [NC-027] | – | 6.9 | –
28 | Cc1ccc(C)c(O)c1 [NC-029] | – | 84.6 | –
29 | CN(C)c1cccc2c(S(=O)(=O)Cl)cccc12 [NC-032] | – | 4.6 | –
30 | O=c1oc2c(O)c(O)cc3c(=O)oc4c(O)c(O)cc1c4c23 [NC-033] | – | 64.9 | –
31 | Oc1cc(O)c2c(c1)O[C@H](c1ccc(O)c(O)c1)[C@H](O)C2 [NC-034] | – | 97.1 | –
32 | O=C(O[C@@H]1Cc2c(O)cc(O)cc2O[C@@H]1c1ccc(O)c(O)c1)c1cc(O)c(O)c(O)c1 [NC-035] | – | 94.8 | –
33 | Oc1cc(O)c2c(c1)O[C@H](c1cc(O)c(O)c(O)c1)[C@H](O)C2 [NC-036] | – | 101.9 | –
34 | O=C(O[C@@H]1Cc2c(O)cc(O)cc2O[C@@H]1c1cc(O)c(O)c(O)c1)c1cc(O)c(O)c(O)c1 [NC-037] | – | 155.3 | –
35 | CCOc1ccc2c(c1)C(C)=CC(C)(C)N2 [NC-038] | – | 96.4 | –
36 | COc1cc(/C=C/C(=O)O)ccc1O [NC-039] | – | 63.4 | –
37 | O=c1cc(-c2ccccc2)oc2ccccc12 [NC-040] | – | 52.2 | –
38 | O=C(O)c1cc(O)c(O)c(O)c1 [NC-041] | – | 148.8 | –
39 | O=c1c(-c2ccc(O)cc2)coc2cc(O)cc(O)c12 [NC-042] | – | 45.6 | 45.6
40 | C[C@]12CC[C@H](O)C[C@H]1CC[C@@H]1[C@@H]2CC[C@]2(C)[C@@H](C3=CC(=O)OC3)[C@@H](O)C[C@]12O [NC-043] | – | 102.7 | –
41 | O=c1c(O)c(-c2ccc(O)c(O)c2)oc2c(O[C@@H]3O[C@H](CO)[C@@H](O)[C@H](O)[C@H]3O)c(O)cc(O)c12 [NC-044] | – | 105.8 | –
42 | O=C(OC[C@H]1OC(O)[C@@](O)(COC(=O)c2cc(O)c(O)c(O)c2)[C@@H]1O)c1cc(O)c(O)c(O)c1 (stereo partly shown) [NC-045] | – | 14.7 | –
43 | COc1ccc([C@@H]2CC(=O)c3c(O)cc(O[C@@H]4O[C@H](CO[C@@H]5O[C@@H](C)[C@H](O)[C@@H](O)[C@H]5O)[C@@H](O)[C@H](O)[C@H]4O)cc3O2)cc1O [NC-046] | – | 77.7 | –
44 | O=C(CO)c1ccccc1 [NC-047] | – | 129.7 | –
45 | CC(=O)c1cccc(O)c1 [NC-048] | – | 125.8 | –
46 | CC(=O)c1ccc(O)cc1 [NC-049] | – | 29.4 | –

Row | SMILES | SFV replication % left (surviving fraction, remaining percentage of SFV replication) [%] | SFV replication % left [%] | % left (remaining SFV replication) [%]
47 | O=C(O)Cc1ccccc1O [NC-050] | – | 7.3 | –
48 | O=C(O)Cc1cccc(O)c1 [NC-051] | – | 110.8 | –
49 | O=C(O)Cc1ccc(O)cc1 [NC-052] | – | 103.6 | –
50 | Oc1ccc(O)cc1 [NC-053] | – | 16.9 | –
51 | CC(C)OC(=O)c1cc(O)c(O)c(O)c1 [NC-054] | – | 124.0 | –
52 | O=C(O)c1ccc(O)cc1O [NC-055] | – | 32.1 | 32.1
53 | COc1cc(-c2oc3cc(O)cc(O)c3c(=O)c2O)ccc1O [NC-056] | – | 28.9 | 28.9
54 | O=c1c(O)c(-c2ccc(O)cc2)oc2cc(O)cc(O)c12 [NC-057] | – | 2.9 | –
55 | COc1c2occc2c(OC)c2c(=O)cc(C)oc12 [NC-058] | – | 120.6 | –
56 | CCCCCCCCCCCCOC(=O)c1cc(O)c(O)c(O)c1 [NC-059] | – | 12.3 | –
57 | Oc1cc(O)c2c(c1)OC(c1ccc(O)c(O)c1)C(O)C2O (stereo not shown) [NC-060] | – | 136.3 | –
58 | O=c1cc(-c2ccc(O)c(O)c2)oc2cc(O)cc(O)c12 [NC-061] | – | 71.3 | –
59 | O=c1cc(-c2ccc(O)c(O)c2)oc2cc(O[C@@H]3O[C@H](CO)[C@@H](O)[C@H](O)[C@H]3O)cc(O)c12 [NC-062] | – | 17.8 | –
60 | COc1cc(-c2[o+]c3cc(O)cc(O[C@@H]4O[C@H](CO)[C@@H](O)[C@H](O)[C@H]4O)c3cc2O[C@@H]2O[C@H](CO)[C@@H](O)[C@H](O)[C@H]2O)cc(OC)c1O.[Cl-] [NC-063] | – | 15.4 | –
61 | COC(=O)c1cc(O)c(O)c(O)c1 [NC-064] | – | 67.8 | –
62 | Cc1cc(=O)oc2cc(O)ccc12 [NC-065] | – | 12.0 | –
63 | CCN(CC)CCCC(C)Nc1cc(/C=C/c2ccccc2Cl)nc2cc(Cl)ccc12 (stereo not shown) [NC-066] | – | 45.8 | 45.8
64 | O.O.O=c1c(O)c(-c2ccc(O)cc2O)oc2cc(O)cc(O)c12 [NC-067] | – | 82.9 | –
65 | O=c1c(O)c(-c2cc(O)c(O)c(O)c2)oc2cc(O)cc(O)c12 [NC-068] | – | 2.0 | –
66 | O=C1C[C@@H](c2ccc(O)cc2)Oc2cc(O)cc(O)c21 [NC-069] | – | -0.0736 | –
67 | Cc1ccc(O)c(O)c1 [NC-070] | – | 111.1 | –
68 | CC(Cc1ccc(O)c(O)c1)C(C)Cc1ccc(O)c(O)c1 (stereo not shown) [NC-071] | – | 35.6 | 35.6
69 | CCCCCCCCOC(=O)c1cc(O)c(O)c(O)c1 [NC-072] | – | 134.4 | –

Row | SMILES | SFV replication % left (surviving fraction, remaining percentage of SFV replication) [%] | SFV replication % left [%] | % left (remaining SFV replication) [%]
70 | O=C(O)c1ccccc1C(=O)O [NC-073] | – | 143.7 | –
71 | Oc1cc(O)c2c(c1)O[C@H](c1ccc(O)c(O)c1)[C@H](O)[C@H]2c1c(O)cc(O)c2c1O[C@H](c1ccc(O)c(O)c1)[C@@H](O)C2 [NC-074] | – | 128.1 | –
72 | Oc1cc(O)c2c(c1)O[C@H](c1ccc(O)c(O)c1)[C@H](O)[C@H]2c1c(O)cc(O)c2c1O[C@H](c1ccc(O)c(O)c1)[C@H](O)C2 [NC-075] | – | 93.7 | –
73 | CCCOC(=O)c1cc(O)c(O)c(O)c1 [NC-076] | – | 33.6 | –
74 | O=C(O)c1ccc(O)c(O)c1 [NC-077] | – | 21.1 | –
75 | Oc1cccc(O)c1O [NC-078] | – | 22.7 | –
76 | O=c1c(O)c(-c2ccc(O)c(O)c2)oc2cc(O)c(O)c(O)c12 [NC-079] | – | 90.2 | –
77 | O=c1c(O)c(-c2ccc(O)c(O)c2)oc2cc(O)cc(O)c12 [NC-080] | – | 125.8 | –
78 | COc1cc(O)c2c(=O)c(OC)c(-c3ccc(OC)c(OC)c3)oc2c1 [NC-081] | – | 65.0 | –
79 | C[C@@H]1O[C@@H](Oc2c(-c3ccc(O)c(O)c3)oc3cc(O)cc(O)c3c2=O)[C@H](O)[C@H](O)[C@H]1O.O.O [NC-083] | – | 11.4 | –
80 | O=C(O)[C@]1(O)C[C@@H](O)[C@@H](O)[C@H](O)C1 [NC-084] | – | 98.2 | –
81 | Oc1cccc(O)c1 [NC-085] | – | 83.0 | –
82 | Oc1ccc(C=Cc2cc(O)cc(O)c2)cc1 [NC-086] | – | 103.4 | –
83 | COc1cc(O)c2c(=O)c(O)c(-c3ccc(O)c(O)c3)oc2c1 [NC-087] | – | 119.1 | –
84 | O=C(/C=C/c1ccc(O)c(O)c1)O[C@H](Cc1ccc(O)c(O)c1)C(=O)O [NC-088] | – | 120.3 | –
85 | C[C@@H]1O[C@@H](OC[C@H]2O[C@@H](Oc3c(-c4ccc(O)c(O)c4)oc4cc(O)cc(O)c4c3=O)[C@H](O)[C@@H](O)[C@@H]2O)[C@H](O)[C@H](O)[C@H]1O [NC-090] | – | 44.1 | 44.1
86 | OCc1ccccc1O[C@@H]1O[C@H](CO)[C@@H](O)[C@H](O)[C@H]1O [NC-091] | – | 104.4 | –
87 | O=C(O)c1ccccc1O [NC-092] | – | 69.1 | –
88 | COc1cc(C2Oc3cc([C@H]4Oc5cc(O)cc(O)c5C(=O)[C@@H]4O)ccc3OC2CO)ccc1O (stereo partly shown) [NC-093] | – | 22.4 | –
89 | COc1cc(/C=C/C(=O)O)cc(OC)c1O [NC-095] | – | 22.0 | –
90 | C=CCC(=NOS(=O)(=O)[O-])SC1OC(CO)C(O)C(O)C1O.O.[K+] (stereo not shown) [NC-096] | – | 47.6 | 47.6
